Measurements from US20230049952A1, “METHODS AND COMPOUNDS FOR RESTORING MUTANT P53 FUNCTION” (PMV Pharmaceuticals, Inc., priority 2020, published 2023).
Read-outs that look alike come from different tables or passages of the source.

Settings: for Plasma Conc. / Tumor Conc.: MT373 tumor-bearing mice

With `CCn1c(C#CCNc2ccccc2)cc2cc(CNC3CCN(C)CC3)ccc21` [Compound 1, 1-Anilino-3-{1-ethyl-5-[(1-methyl-4-piperidylamino)methyl]-1H-indol-2-yl}-2-propyne] the “Plasma Conc.” value (75 mg/kg BIDx1 PO, 8 h) was 8375 ng/mL, the “Tumor Conc.” value (75 mg/kg BIDx1 PO, 8 h) was 30853 ng/g and the “Plasma Conc.” value (75 mg/kg BIDx1 PO, 24 h) was 1843 ng/mL. The “Tumor Conc.” value (75 mg/kg BIDx1 PO, 24 h) was 12035 ng/g, the “Plasma Conc.” value (75 mg/kg BIDx1 PO, 48 h) was 40 ng/mL and the “Tumor Conc.” value (75 mg/kg BIDx1 PO, 48 h) was 318 ng/g. The “Plasma Conc.” value (75 mg/kg BIDx1 PO, 72 h) was 0 ng/mL, the “Tumor Conc.” value (75 mg/kg BIDx1 PO, 72 h) was 97 ng/g and the “Plasma Conc.” value (75 mg/kg BIDx1 PO, 98 h) was 0 ng/mL. For the same compound, the “Tumor Conc.” value (75 mg/kg BIDx1 PO, 98 h) was 0 ng/g, the plasma concentration (75 mg/kg BID×1 PO, 8 h (Cmax)) was 8375 ng/mL and the plasma concentration (75 mg/kg BID×1 PO, 24 h) was 1843 ng/mL. For the same compound, the “Plasma Conc.” value (150 mg/kg BIDx1 PO, 8 h) was 11435 ng/mL, the “Tumor Conc.” value (150 mg/kg BIDx1 PO, 8 h) was 57645 ng/g and the “Plasma Conc.” value (150 mg/kg BIDx1 PO, 24 h) was 5986 ng/mL. For the same compound, the “Tumor Conc.” value (150 mg/kg BIDx1 PO, 24 h) was 67778 ng/g, the “Plasma Conc.” value (150 mg/kg BIDx1 PO, 48 h) was 268 ng/mL and the “Tumor Conc.” value (150 mg/kg BIDx1 PO, 48 h) was 2436 ng/g. The “Plasma Conc.” value (150 mg/kg BIDx1 PO, 72 h) was 7 ng/mL, the “Tumor Conc.” value (150 mg/kg BIDx1 PO, 72 h) was 59 ng/g and the “Plasma Conc.” value (150 mg/kg BIDx1 PO, 98 h) was 3 ng/mL. The “Tumor Conc.” value (150 mg/kg BIDx1 PO, 98 h) was 23 ng/g, the plasma concentration (150 mg/kg BID×1 PO, 8 h (Cmax)) was 11435 ng/mL and the plasma concentration (150 mg/kg BID×1 PO, 24 h) was 5986 ng/mL.
